Test system: parental melanoma
Experiment: Immune infiltrates (immunofluorescence, flow cytometry) in parental melanomas and draining lymph nodes
Format: in vivo, mouse
Procedure: Immunohistochemical analyses. Mouse tumors were collected 5 days after treatment initiation and formalin-fixed paraffin-embedded (FFPE). Slides were baked for 60 minutes in a 60° C. oven and loaded into the Bond III™ staining platform. Slides were antigen retrieved in Bond™ Epitope Retrieval 1 for 30 minutes at 100° C. then incubated with CD3 (Abcam™, ab16669) at 1:150 diluted in Bond™ Primary Antibody diluent for 30 minutes at room temperature. Primary antibody was detected using Bond™ Polymer Refine Detection kit, slides were developed in DAB, then dehydrated and coverslipped. For each of 3 samples per group, 3 random 20× magnification fields were chosen at the tumor center for quantification. The open-source CellProfiler™ cell image analysis software3 was used to quantify positively stained cells in each image. The analysis pipeline utilized the UnmixColors module to separate each image into one of the Hematoxylin stain and one of the DAB stain. The EnhanceOrSuppressFeatures module was applied to the DAB image to enhance cellular features. Finally, the IdentifyPrimaryObjects module was used to count the number of cells present in the enhanced image.
Immunofluorescence analyses. […]
Flow cytometry. […] Flow cytometry data were acquired on the BD™ LSRII flow cytometer and analyzed using FlowJo™ software (Tree Star™).

## CC(C)Cn1cnc2c(N)nc3ccccc3c21 [imiquimod]
Draining lymph nodes, parental melanoma-bearing mice
  PD-L2 expression on CD11c+ dendritic cells: reduced
Parental melanomas, imiquimod alone or with anti-PD-1 or aFP
  granzyme B+ fraction of CD8+ TILs: expanded
